{"source": "patent US20140328757A1", "about": "“COMPOSITIONS COMPRISING ASCORBIC ACID AND AN IMAGING AGENT AND RELATED METHODS” (Lantheus Medical Imaging, Inc., priority 2011, published 2014)", "key": {"[1]": {"details": "cited from earlier work"}, "[2]": {"experiment": "pH and the chemical integrity (rate of non-radioactive impurity formation) of the non-radioactive congener", "format": "physicochemical", "details": "ascorbic acid 50 mg/mL, congener 5 μg/mL, ethanol 5%, treated with [18F]NaF", "experimental": "(§1) Both chemical integrity and overall stability of a radiopharmaceutical composition is measured through determination of the change in RCP of the labeled compound over time using ITLC or more preferably HPLC. The advantage of using HPLC is that impurities caused by radiolytic degradation may be readily separated from the labeled compound under certain chromatographic conditions. […] Several HPLC methods have been developed for monitoring the stability of radiopharmaceutical compositions of the present invention:\n(§2) Analytical HPLC was performed on an Agilent Technologies 1100 LC containing a spectrophotometric detection system. Non-radiochemical impurities were evaluated at 295 nm using a Waters Zorbax SB-C18 column (4.6×50 mm, 1.8 μm) with an 8%/min gradient from 20-100% MeCN containing 0.1% formic acid and 10% H2O at 1 mL/min\nThe chemical integrity of radiopharmaceutical compositions containing the non-radioactive congener of the imaging agent (2-(tert-butyl)-4-chloro-5-((4-((2-fluoroethoxy)methyl)benzyl)oxy)pyridazin-3(2H)-one) was assessed over a range of pH values. […] The resulting solutions were treated with [^18F]NaF then monitored for changes in chemical purity (non-radioactive impurities) over time using the HPLC methods outlined in Example 5."}, "[3]": {"experiment": "Stability (radiochemical purity over time by HPLC) of radiopharmaceutical compositions over a range of ascorbic acid and radioactivity concentrations", "format": "physicochemical", "details": "pH 5.8", "text": "The radiochemical purity (RCP) of a labeled compound (i.e., as in Example 3) is known to be dependent on certain conditions of its preparation including, but not limited to, reaction temperature, solution pH and overall synthesis time. Once prepared with high RCP, the labeled compound is formulated into a radiopharmaceutical composition designed to stabilize the labeled compound over time. Certain radiopharmaceutical compositions of the present invention are effective in maintaining the stability of labeled compounds for up to 12 h.\nas §1\nAnalytical HPLC was performed on an Agilent Technologies 1100 LC containing a radiometric detection system. Radiochemical impurities were evaluated using a Berthold radiation detector and a Waters Zorbax SB-C18 column (4.6×50 mm, 1.8 μm) using an isocratic elution (45:55 H2O/MeCN) at 1 mL/min\nas §2\nAnalytical HPLC was performed on an Agilent Technologies 1100 LC containing both radiometric and spectrophotometric detection systems. Radiochemical impurities were evaluated using a Raytest GabiStar radiation detector and non-radiochemical impurities were evaluated at 295 nm both using a Waters Zorbax SB-C18 column (4.6×50 mm, 1.8 μm) with a 6%/min gradient from 20-50% MeCN, followed by a 1.4%/min gradient from 50-60% MeCN, followed by a 2%/min gradient from 60-70% MeCN each containing 0.1% formic acid and 10% H2O at 1 mL/min.\nAnalytical HPLC was performed on an Agilent Technologies 1100 LC containing both radiometric and spectrophotometric detection systems. Radiochemical impurities were evaluated using a Raytest GabiStar radiation detector and non-radiochemical impurities were evaluated at 295 nm both using a Waters Zorbax SB-C18 column (4.6×50 mm, 1.8 μm) with a 30%/min gradient from 30-60% MeCN, followed by a 2 min isocratic hold at 60% MeCN, followed by a 5%/min gradient from 60-80% MeCN each containing 0.1% trifluoroacetic acid and 10% H2O at 1 mL/min\nAqueous [^18F]fluoride, as prepared in Example 1, was filtered through an anion exchange column to remove unreacted [^18O]H2O; [^18F]fluoride was retained within the […] resin matrix. The column was then washed with aqueous Et4NHCO3 with transfer to the reaction vessel. The resulting solution was diluted with MeCN then concentrated to dryness using elevated temperature and reduced pressure. The mixture of anhydrous [^18F]Et4NF and Et4NHCO3 thus obtained was treated with the acetonitrile solution of the imaging agent precursor as prepared in Example 2, then warmed to 85-120° C. and maintained 5-20 min. After cooling, the solution was diluted with H2O or H2O/MeCN then directly purified by HPLC using a 45:55 H2O/MeCN eluent. The main product peak was collected and diluted with ascorbic acid (10 mL of a 0.28 M solution; pH 2).\nwas retained within the C18 resin matrix and the filtrate discarded. The cartridge was successively washed with ascorbic acid (10 mL of a 0.28 M solution in H2O; pH 2), the filtrate discarded, then absolute EtOH (≦0.50 mL), and the filtrate collected. […]"}, "[4]": {"experiment": "pH and the stability (radiochemical purity over time) of an imaging agent", "format": "physicochemical", "details": "ascorbic acid solutions with higher pH values (pH 5.8 and 6.5) versus more acidic compositions (pH 2.4-4.6)", "experimental": "(§3) was then collected, diluted with an ascorbic acid solution (10-15 mL), then passed through a C18 Sep-Pak® cartridge, previously conditioned with 10 mL of ethanol followed by 10 mL of an ascorbic acid solution; The imaging agent was retained within the C18 resin matrix and the filtrate discarded. The cartridge was then successively washed with an ascorbic acid solution (10 mL), the filtrate discarded, then absolute ethanol (≦0.5 mL) and the filtrate collected. The resulting ethanol concentrate of the imaging agent was then diluted with an ascorbic acid solution prior to use.\n(§4) Both chemical integrity and overall stability of a radiopharmaceutical composition is measured through determination of the change in RCP of the labeled compound over time using ITLC or more preferably HPLC. The advantage of using HPLC is that impurities caused by radiolytic degradation may be readily separated from the labeled compound under certain chromatographic conditions. […]\nAnalytical HPLC was performed on an Agilent Technologies 1100 LC containing a radiometric detection system. Radiochemical impurities were evaluated using a Berthold radiation detector and a Waters Zorbax SB-C18 column (4.6×50 mm, 1.8 μm) using an isocratic elution (45:55 H2O/MeCN) at 1 mL/min […]\nThe stability of radiopharmaceutical compositions containing an imaging agent was assessed over a range of pH values. […]"}, "[5]": {"experiment": "Concentration of ascorbic acid and the stability (radiochemical purity over time) of an imaging agent", "format": "physicochemical", "details": "pH 5.8", "experimental": "as §3, §4\nThe stability of radiopharmaceutical compositions containing an imaging agent was assessed over a range of ascorbic acid concentration values. […] Each solution was then utilized in the preparation of the imaging agent described in Example 4, and the resulting compositions monitored for changes in radiochemical purity over time using the HPLC methods described in Example 5."}}, "data": [{"smiles": "O=C1O[C@H]([C@@H](O)CO)C(O)=C1O", "note": "[ascorbic acid]", "values": [{"measurement": "pKa", "setting": "[1]", "value": "about 4.2"}]}, {"smiles": "CC(C)(C)n1ncc(OCc2ccc(COCCF)cc2)c(Cl)c1=O", "note": "[2-(tert-butyl)-4-chloro-5-((4-((2-fluoroethoxy)methyl)benzyl)oxy)pyridazin-3(2H)-one]", "values": [{"measurement": "Reaction order of formation of certain non-radioactive impurities (FIG. 2)", "setting": "[2]", "value": "first order"}, {"measurement": "Reduction in the rate of impurity formation (non-radioactive impurities, FIG. 2)", "setting": "[2]; over the pH range considered (4.0-8.2)", "value": "ten-fold reduction"}]}, {"smiles": "CC(C)(C)n1ncc(OCc2ccc(COCC[18F])cc2)c(Cl)c1=O", "note": "[imaging agent, 2-tert-butyl-4-chloro-5-[4-(2-[18F]fluoro-ethoxymethyl)-benzyloxy]-2H-pyridazin-3-one]", "values": [{"measurement": "Radiochemical Purity", "setting": "[3]; 0 h, ascorbic acid 30 mg/mL, 29.5 mCi/mL, Siemens GN module", "value": 100.0, "unit": "%"}, {"measurement": "Radiochemical Purity", "setting": "[3]; 0 h, ascorbic acid 30 mg/mL, 68.0 mCi/mL, Eckert & Ziegler module", "value": 100.0, "unit": "%"}, {"measurement": "Radiochemical Purity", "setting": "[3]; 0 h, ascorbic acid 50 mg/mL, 44.8 mCi/mL, Eckert & Ziegler module", "value": 100.0, "unit": "%"}, {"measurement": "Radiochemical Purity", "setting": "[3]; 0 h, ascorbic acid 50 mg/mL, 47.0 mCi/mL, Siemens GN module", "value": 100.0, "unit": "%"}, {"measurement": "Radiochemical Purity", "setting": "[3]; 0 h, ascorbic acid 50 mg/mL, 50.0 mCi/mL, Siemens RN module", "value": 100.0, "unit": "%"}, {"measurement": "Radiochemical Purity", "setting": "[3]; 0 h, ascorbic acid 50 mg/mL, 65.4 mCi/mL, GE MX module", "value": 100.0, "unit": "%"}, {"measurement": "Radiochemical Purity", "setting": "[3]; 0 h, ascorbic acid 50 mg/mL, 115.9 mCi/mL, Siemens GN module", "value": 99.7, "unit": "%"}, {"measurement": "Radiochemical Purity", "setting": "[3]; 3 h, ascorbic acid 30 mg/mL, 29.5 mCi/mL, Siemens GN module", "value": 100.0, "unit": "%"}, {"measurement": "Radiochemical Purity", "setting": "[3]; 3 h, ascorbic acid 30 mg/mL, 68.0 mCi/mL, Eckert & Ziegler module", "value": 97.6, "unit": "%"}, {"measurement": "Radiochemical Purity", "setting": "[3]; 3 h, ascorbic acid 50 mg/mL, 44.8 mCi/mL, Eckert & Ziegler module", "value": 100.0, "unit": "%"}, {"measurement": "Radiochemical Purity", "setting": "[3]; 3 h, ascorbic acid 50 mg/mL, 47.0 mCi/mL, Siemens GN module", "value": 100.0, "unit": "%"}, {"measurement": "Radiochemical Purity", "setting": "[3]; 3 h, ascorbic acid 50 mg/mL, 50.0 mCi/mL, Siemens RN module", "value": 98.2, "unit": "%"}, {"measurement": "Radiochemical Purity", "setting": "[3]; 3 h, ascorbic acid 50 mg/mL, 65.4 mCi/mL, GE MX module", "value": 100.0, "unit": "%"}, {"measurement": "Radiochemical Purity", "setting": "[3]; 3 h, ascorbic acid 50 mg/mL, 115.9 mCi/mL, Siemens GN module", "value": 97.1, "unit": "%"}, {"measurement": "Radiochemical Purity", "setting": "[3]; 6 h, ascorbic acid 30 mg/mL, 29.5 mCi/mL, Siemens GN module", "value": 100.0, "unit": "%"}, {"measurement": "Radiochemical Purity", "setting": "[3]; 6 h, ascorbic acid 30 mg/mL, 68.0 mCi/mL, Eckert & Ziegler module", "value": 96.7, "unit": "%"}, {"measurement": "Radiochemical Purity", "setting": "[3]; 6 h, ascorbic acid 50 mg/mL, 44.8 mCi/mL, Eckert & Ziegler module", "value": 100.0, "unit": "%"}, {"measurement": "Radiochemical Purity", "setting": "[3]; 6 h, ascorbic acid 50 mg/mL, 47.0 mCi/mL, Siemens GN module", "value": 99.2, "unit": "%"}, {"measurement": "Radiochemical Purity", "setting": "[3]; 6 h, ascorbic acid 50 mg/mL, 50.0 mCi/mL, Siemens RN module", "value": 99.0, "unit": "%"}, {"measurement": "Radiochemical Purity", "setting": "[3]; 6 h, ascorbic acid 50 mg/mL, 65.4 mCi/mL, GE MX module", "value": 98.7, "unit": "%"}, {"measurement": "Radiochemical Purity", "setting": "[3]; 6 h, ascorbic acid 50 mg/mL, 115.9 mCi/mL, Siemens GN module", "value": 97.1, "unit": "%"}, {"measurement": "Radiochemical Purity", "setting": "[3]; 9 h, ascorbic acid 30 mg/mL, 29.5 mCi/mL, Siemens GN module", "value": 100.0, "unit": "%"}, {"measurement": "Radiochemical Purity", "setting": "[3]; 9 h, ascorbic acid 30 mg/mL, 68.0 mCi/mL, Eckert & Ziegler module", "value": 96.2, "unit": "%"}, {"measurement": "Radiochemical Purity", "setting": "[3]; 9 h, ascorbic acid 50 mg/mL, 44.8 mCi/mL, Eckert & Ziegler module", "value": 100.0, "unit": "%"}, {"measurement": "Radiochemical Purity", "setting": "[3]; 9 h, ascorbic acid 50 mg/mL, 47.0 mCi/mL, Siemens GN module", "value": 99.4, "unit": "%"}, {"measurement": "Radiochemical Purity", "setting": "[3]; 9 h, ascorbic acid 50 mg/mL, 50.0 mCi/mL, Siemens RN module", "value": 98.0, "unit": "%"}, {"measurement": "Radiochemical Purity", "setting": "[3]; 9 h, ascorbic acid 50 mg/mL, 65.4 mCi/mL, GE MX module", "value": 99.3, "unit": "%"}, {"measurement": "Radiochemical Purity", "setting": "[3]; 9 h, ascorbic acid 50 mg/mL, 115.9 mCi/mL, Siemens GN module", "value": 96.0, "unit": "%"}, {"measurement": "Radiochemical Purity", "setting": "[3]; 12 h, ascorbic acid 30 mg/mL, 29.5 mCi/mL, Siemens GN module", "value": 100.0, "unit": "%"}, {"measurement": "Radiochemical Purity", "setting": "[3]; 12 h, ascorbic acid 30 mg/mL, 68.0 mCi/mL, Eckert & Ziegler module", "value": 96.1, "unit": "%"}, {"measurement": "Radiochemical Purity", "setting": "[3]; 12 h, ascorbic acid 50 mg/mL, 44.8 mCi/mL, Eckert & Ziegler module", "value": 100.0, "unit": "%"}, {"measurement": "Radiochemical Purity", "setting": "[3]; 12 h, ascorbic acid 50 mg/mL, 47.0 mCi/mL, Siemens GN module", "value": 99.5, "unit": "%"}, {"measurement": "Radiochemical Purity", "setting": "[3]; 12 h, ascorbic acid 50 mg/mL, 50.0 mCi/mL, Siemens RN module", "value": 98.2, "unit": "%"}, {"measurement": "Radiochemical Purity", "setting": "[3]; 12 h, ascorbic acid 50 mg/mL, 65.4 mCi/mL, GE MX module", "value": 96.9, "unit": "%"}, {"measurement": "Radiochemical Purity", "setting": "[3]; 12 h, ascorbic acid 50 mg/mL, 115.9 mCi/mL, Siemens GN module", "value": 96.0, "unit": "%"}, {"measurement": "Initial RCP and variability in RCP over time", "setting": "[3]; over 30 to 50 mg/mL ascorbic acid and 30 to 115 mCi/mL", "value": "do not significantly change"}, {"measurement": "Initial RCP and change in RCP over time (FIG. 1)", "setting": "[4]", "value": "markedly less initial stability and stability to storage"}, {"measurement": "RCP (FIG. 3)", "setting": "[5]; ascorbic acid 20 mg/mL", "value": "overall decrease in RCP"}, {"measurement": "Initial RCP and variability in RCP over time (FIG. 3)", "setting": "[5]; ascorbic acid 200 to 50 mg/mL", "value": "do not significantly change"}]}]}
